Columns and labels:
Assay type in all cases: cell-based, human
[1] = tested on: A549 cells; assay: MTT assay, anti-proliferative effect in A549 cells; conditions: 48 h treatment, read-out: IC50 to inhibit cell proliferation
Method: (§1) Therefore, D-DSePA was compared with un-deuterated DSePA for its anticancer activity in A549, H1975 and H3122 cell lines which are representative of NSCLC. For this, above cells were treated with the varying concentrations (0.1-100 μM) of DSePA/D-DSePA for 48 h and the cell viability was determined by MTT assay (FIG. 9A-C). The plot of percent (%) cytotoxicity (100-% viability) versus the concentration of DSePA/D-DSePA was used to estimate the half maximum concentration (IC50) of above compounds to inhibit the proliferation of cells. […] Employing these values, the therapeutic index (IC50 in normal lung cell/IC50 in lung cancer cell) of DSePA and D-DSePA in different pairs of normal versus cancerous cells (viz., A549/WI-38, A549/WI-26 VA4, H1975/WI-38, H1975/WI-26 VA4, H3122/WI-38 and H3122/WI-26 VA4) was calculated (Table-3). […]
(§2) MTT Assay—To evaluate the anti-proliferative effect of D-DScPA and DScPA, Cells (˜5×10^3) suspended in 100 μl of complete culture medium were seeded in each well of 96 well plates. […] The percentage (%) cytotoxicity was calculated from the decrease in absorbance at 570 nm of treated groups as compared to that of control group. […] The therapeutic index was calculated by normalizing the IC50 concentration of D-DSePA/DSePA in non-cancerous cells to that in cancerous cells.

[2] = tested on: H1975 cells; assay: MTT assay, anti-proliferative effect in H1975 cells; conditions: 48 h treatment, read-out: IC50 to inhibit cell proliferation
Method: as §1, §2

[3] = tested on: WI-26 VA4 cells; assay: MTT assay, toxicity in non-cancerous lung fibroblast WI-26 VA4 cells; conditions: 48 h post treatment, read-out: IC50 for inhibiting the cell proliferation
From the text: as §1, with “For this, above cells were treated with the varying concentrations (0.1-100 μM) of DSePA/D-DSePA for 48 h and the cell viability was determined by MTT assay (FIG. 9A-C).” left out, “cells. […] Similarly, the toxicity of DSePA/D-DSePA was studied in non-cancerous lung fibroblast cells, WI-38 and WI-26 VA4 in the concentration range of 0.1 to 1000 μM at 48 h post treatment by MTT assay (FIG. 9D and 9E).” for “cells.”
as §2

[4] = tested on: A549 cells; assay: Clonogenic assay in A549 cells; conditions: seven days treatment, read-out: IC50 to inhibit growth (survival fraction)
Method: (§3) Further, clonogenic assay is considered as the gold standard method for evaluating the anticancer activity of any compound and is also a good indicator of the in vivo efficacy of any anticancer compound. Therefore, the therapeutic index of DSePA and D-DSePA in A549/WI-38 cells was also validated by employing the clonogenic assay. For this, A549/WI-38 cells were treated with the varying concentrations (0.1-2 μM)/(1-500 μM) of DSePA/D-DSePA for seven days and the survival fraction was calculated by counting the number of surviving clones (FIG. 11A). The plot of survival fraction verses the concentration of DScPA/D-DSCPA was used to estimate the IC50 of above compounds to inhibit the growth of A549/WI-38 cells. […] This clearly confirmed that deuteration of DScPA reduced its toxicity in normal cells without compromising its efficacy in cancer cells. […]
(§4) Clonogenic assay—Clonogenic assay was performed according to the method reported previously. […] After 7 days, colonies were fixed with absolute methanol for 5 min, stained with 0.5% crystal violet for 5 min, washed with distilled water to remove excess stain and counted manually under a stereo microscope. […] The plating efficiency and the survival fraction under irradiated and drug treated conditions were calculated using following formulae: […]
(§5) The plating efficiency of A549 and WI38 cells was calculated by seeding ˜300 and ˜500 cells respectively. […]

[5] = tested on: WI-38 cells; assay: Clonogenic assay in WI-38 cells; conditions: seven days treatment, read-out: IC50 to inhibit growth (survival fraction)
Method: as §3, §4, §5

[6] = tested on: H3122 cells; assay: MTT assay, anti-proliferative effect in H3122 cells; conditions: 48 h treatment, read-out: IC50 to inhibit cell proliferation
Method: as §1, §2

[7] = tested on: WI-38 cells; assay: MTT assay, toxicity in non-cancerous lung fibroblast WI-38 cells; conditions: WI38 cells, 48 h post treatment, read-out: IC50 for inhibiting the cell proliferation
From the text: as §1, with “For this, above cells were treated with the varying concentrations (0.1-100 μM) of DSePA/D-DSePA for 48 h and the cell viability was determined by MTT assay (FIG. 9A-C).” left out, “cells. […] Similarly, the toxicity of DSePA/D-DSePA was studied in non-cancerous lung fibroblast cells, WI-38 and WI-26 VA4 in the concentration range of 0.1 to 1000 μM at 48 h post treatment by MTT assay (FIG. 9D and 9E).” for “cells.”
as §2

Question: `O=C(O)CC[Se][Se]CCC(=O)O` [D-DSePA, 3,3′-diselenodipropionic acid-D8] was tested. Which IC50 [1] did it give?
Answer: 15.2 ± 0.9 µM

Question: What about the IC50 [2] of the same compound?
Answer: 4.6 ± 0.7 µM

Question: What about the IC50 [3] of the same compound?
Answer: 550 ± 10.2 µM

Question: And the IC50 [4]?
Answer: 0.9 ± 0.03 µM

Question: What about the IC50 [5] of the same compound?
Answer: 35.5 ± 0.02 µM

Question: What about the IC50 [6] of the same compound?
Answer: 46.5 ± 2.9 µM

Question: What about the IC50 [7] of the same compound?
Answer: 1000 ± 6.3 µM

From US20240208901A1, “Deuterated 3,3'-Diselenodipropionic Acid (DSePA) and Its Use as an Anticancer or Radioprotective Agent” (Secretary, Department of Atomic Energy, priority 2022, published 2024)
